Experimental data published in ChEMBL document CHEMBL4257490, “Development of a peptide-based bifunctional chelator conjugated to a cytotoxic drug for the treatment of melanotic melanoma” (Medchemcomm, 2018).
pIC50: −log10 of the molar value. Activity calls are given as the source filed them. The rule behind the calls is not given here. Residues, ends and D or L forms follow the SMILES beside them. *: point of attachment. X1 = O=c1nc(N*)ccn1[C@@H]1O[C@H](CO)[C@@H](O)C1(F)F

Key:
[1] = Drug uptake in muscle of Balb/c mouse allografted with mouse B16F10 cells using 99mTc(CO)3-labeled compound at 10 to 12 MBq/kg, iv measured at 4 hrs; format: ADME, organism-based, Muscle tissue; conditions: in vivo
[2] = Hemolytic activity in rat erythrocytes up to 50 uM after 1 hr relative to control; format: ADME, cell-based, Erythrocyte; conditions: read-out: Activity
[3] = Ratio of drug level in tumor to blood of Balb/c mouse allografted with mouse B16F10 cells using 99mTc(CO)3-labeled compound at 10 to 12 MBq/kg, iv measured at 2 hrs; format: ADME, organism-based, Tumor/tissue
[4] = Ratio of drug level in tumor to blood of Balb/c mouse allografted with mouse B16F10 cells using 99mTc(CO)3-labeled compound at 10 to 12 MBq/kg, iv measured at 4 hrs; format: ADME, organism-based, Tumor/tissue
[5] = Drug uptake in mouse B16F10 cells using 99mTc(CO)3-labeled compound at 15 to 20 MBq/ml after 240 mins by gamma scintillation counting method relative to total added activity; format: ADME, cell-based; conditions: b16-f10, 4 h
[6] = Drug uptake in kidney of Balb/c mouse allografted with mouse B16F10 cells using 99mTc(CO)3-labeled compound at 4 to 8 MBq, iv measured at 4 hrs by scintigraphic imaging method; format: ADME, organism-based; conditions: in vivo
[7] = Ratio of drug level in tumor to muscle of Balb/c mouse allografted with mouse B16F10 cells using 99mTc(CO)3-labeled compound at 10 to 12 MBq/kg, iv measured at 4 hrs; format: ADME, organism-based, Tumor/tissue; conditions: in vivo
[8] = Ratio of drug level in tumor to muscle of Balb/c mouse allografted with mouse B16F10 cells using 99mTc(CO)3-labeled compound at 10 to 12 MBq/kg, iv measured at 2 hrs; format: ADME, organism-based, Tumor/tissue; conditions: in vivo
[9] = Drug uptake in lung of Balb/c mouse allografted with mouse B16F10 cells using 99mTc(CO)3-labeled compound at 10 to 12 MBq/kg, iv measured at 2 hrs; format: ADME, organism-based; conditions: in vivo
[10] = Drug uptake in stomach of Balb/c mouse allografted with mouse B16F10 cells using 99mTc(CO)3-labeled compound at 10 to 12 MBq/kg, iv measured at 2 hrs; format: ADME, organism-based; conditions: in vivo
[11] = Drug uptake in mouse B16F10 cells using 5,6-carboxyfluorescein-labeled compound at 20 ug/ml after 4 hrs by DAPI staining-based fluorescence microscopic method; format: ADME, cell-based; conditions: b16-f10, 4 h
[12] = Drug uptake in gastrointestinal tract of Balb/c mouse allografted with mouse B16F10 cells using 99mTc(CO)3-labeled compound at 4 to 8 MBq, iv measured at 4 hrs by scintigraphic imaging method; format: ADME, organism-based; conditions: in vivo
[13] = Drug uptake in liver of Balb/c mouse allografted with mouse B16F10 cells using 99mTc(CO)3-labeled compound at 10 to 12 MBq/kg, iv measured at 4 hrs; format: ADME, organism-based; conditions: in vivo
[14] = Metabolic stability in rat serum assessed as parent compound remaining using 99mTc(CO)3-labeled compound after 24 hrs by TLC method; format: ADME, cell-free; conditions: read-out: Stability
[15] = Drug uptake in mouse B16F10 cells using 99mTc(CO)3-labeled compound at 15 to 20 MBq/ml after 30 mins by gamma scintillation counting method; format: ADME, cell-based; conditions: b16-f10, 0.5 h
[16] = Drug uptake in spleen of Balb/c mouse allografted with mouse B16F10 cells using 99mTc(CO)3-labeled compound at 10 to 12 MBq/kg, iv measured at 4 hrs; format: ADME, organism-based; conditions: in vivo
[17] = Drug uptake in heart of Balb/c mouse allografted with mouse B16F10 cells using 99mTc(CO)3-labeled compound at 10 to 12 MBq/kg, iv measured at 2 hrs; format: ADME, organism-based; conditions: in vivo
[18] = Drug uptake in lung of Balb/c mouse allografted with mouse B16F10 cells using 99mTc(CO)3-labeled compound at 10 to 12 MBq/kg, iv measured at 4 hrs; format: ADME, organism-based; conditions: in vivo
[19] = Drug uptake in urine of Balb/c mouse allografted with mouse B16F10 cells using 99mTc(CO)3-labeled compound at 10 to 12 MBq/kg, iv measured at 4 hrs; format: ADME, organism-based; conditions: in vivo
[20] = Drug uptake in intestine of Balb/c mouse allografted with mouse B16F10 cells using 99mTc(CO)3-labeled compound at 10 to 12 MBq/kg, iv measured at 4 hrs; format: ADME, organism-based; conditions: in vivo
[21] = Drug uptake in muscle of Balb/c mouse allografted with mouse B16F10 cells using 99mTc(CO)3-labeled compound at 10 to 12 MBq/kg, iv measured at 2 hrs; format: ADME, organism-based, Muscle tissue; conditions: in vivo
[22] = Drug uptake in tumor muscle of Balb/c mouse allografted with mouse B16F10 cells using 99mTc(CO)3-labeled compound at 10 to 12 MBq/kg, iv measured at 4 hrs; format: ADME, organism-based; conditions: in vivo
[23] = Drug uptake in spleen of Balb/c mouse allografted with mouse B16F10 cells using 99mTc(CO)3-labeled compound at 10 to 12 MBq/kg, iv measured at 2 hrs; format: ADME, organism-based; conditions: in vivo
[24] = Stability in saline assessed as parent compond remaining using 99mTc(CO)3-labeled compound after 24 hrs by TLC method; format: physicochemical; conditions: read-out: Stability
[25] = Drug uptake in mouse B16F10 cells using 99mTc(CO)3-labeled compound at 15 to 20 MBq/ml after 240 mins by gamma scintillation counting method; format: ADME, cell-based; conditions: b16-f10, 4 h
[26] = Drug uptake in intestine of Balb/c mouse allografted with mouse B16F10 cells using 99mTc(CO)3-labeled compound at 10 to 12 MBq/kg, iv measured at 2 hrs; format: ADME, organism-based; conditions: in vivo
[27] = Drug uptake in heart of Balb/c mouse allografted with mouse B16F10 cells using 99mTc(CO)3-labeled compound at 10 to 12 MBq/kg, iv measured at 4 hrs; format: ADME, organism-based; conditions: in vivo
[28] = Drug uptake in urine of Balb/c mouse allografted with mouse B16F10 cells using 99mTc(CO)3-labeled compound at 10 to 12 MBq/kg, iv measured at 2 hrs; format: ADME, organism-based; conditions: in vivo
[29] = Hemolytic activity in rat erythrocytes at 100 uM after 1 hr relative to control; format: ADME, cell-based, Erythrocyte; conditions: read-out: Activity
B16-F10 [30] = experiment: Ratio of drug uptake in mouse B16F10 cells at 20 ug/ml after 4 hrs by flow cytometric method to drug uptake in mouse B16F10 cells at 20 ug/ml after 30 mins by flow cytometric method; format: ADME, cell-based
[31] = Drug uptake in blood of Balb/c mouse allografted with mouse B16F10 cells using 99mTc(CO)3-labeled compound at 10 to 12 MBq/kg, iv measured at 4 hrs; format: ADME, organism-based; conditions: in vivo
[32] = Drug uptake in kidney of Balb/c mouse allografted with mouse B16F10 cells using 99mTc(CO)3-labeled compound at 10 to 12 MBq/kg, iv measured at 4 hrs; format: ADME, organism-based; conditions: in vivo
[33] = Drug uptake in tumor muscle of Balb/c mouse allografted with mouse B16F10 cells using 99mTc(CO)3-labeled compound at 10 to 12 MBq/kg, iv measured at 2 hrs; format: ADME, organism-based; conditions: in vivo
[34] = Drug degradation in histidine solution using 99mTc(CO)3-labeled compound after 24 hrs by TLC method; format: physicochemical; conditions: read-out: Drug degradation
[35] = n-Octanol-phosphate buffer partition co-efficient, log P of 99mTc(CO)3-labeled compound at 2 to 3 KBq after 1 min by gamma scintillation counting method; format: physicochemical
B16-F10 [36] = experiment: Cytotoxicity against mouse B16F10 cells assessed as decrease in cell viability after 72 hrs by MTT assay; format: functional, cell-based; conditions: B16-F10, 72 h
[37] = Drug uptake in stomach of Balb/c mouse allografted with mouse B16F10 cells using 99mTc(CO)3-labeled compound at 10 to 12 MBq/kg, iv measured at 4 hrs; format: ADME, organism-based; conditions: in vivo
[38] = Drug uptake in urinary bladder of Balb/c mouse allografted with mouse B16F10 cells using 99mTc(CO)3-labeled compound at 4 to 8 MBq, iv measured at 4 hrs by scintigraphic imaging method; format: ADME, organism-based; conditions: in vivo
[39] = Drug uptake in blood of Balb/c mouse allografted with mouse B16F10 cells using 99mTc(CO)3-labeled compound at 10 to 12 MBq/kg, iv measured at 2 hrs; format: ADME, organism-based; conditions: in vivo
[40] = Drug uptake in kidney of Balb/c mouse allografted with mouse B16F10 cells using 99mTc(CO)3-labeled compound at 10 to 12 MBq/kg, iv measured at 2 hrs; format: ADME, organism-based; conditions: in vivo
[41] = Drug uptake in liver of Balb/c mouse allografted with mouse B16F10 cells using 99mTc(CO)3-labeled compound at 10 to 12 MBq/kg, iv measured at 2 hrs; format: ADME, organism-based; conditions: in vivo
[42] = Drug uptake in mouse B16F10 cells using 99mTc(CO)3-labeled compound at 15 to 20 MBq/ml after 30 mins by gamma scintillation counting method relative to total added activity; format: ADME, cell-based; conditions: b16-f10, 0.5 h
[43] = Drug uptake in tumor of Balb/c mouse allografted with mouse B16F10 cells using 99mTc(CO)3-labeled compound at 4 to 8 MBq, iv measured at 4 hrs by scintigraphic imaging method; format: ADME, organism-based, Neoplasm; conditions: in vivo
[44] = Drug uptake in liver of Balb/c mouse allografted with mouse B16F10 cells using 99mTc(CO)3-labeled compound at 4 to 8 MBq, iv measured at 4 hrs by scintigraphic imaging method; format: ADME, organism-based; conditions: in vivo
Mus musculus = experiment: Toxicity in mouse B16F10 cells allografted Balb/c mouse assessed as effect on body weight at 25 mg/kg, iv administered thrice weekly for 21 days starting on day 10 post tumor implantation (reference value: 30.52 +/- 2.9 g); format: organism-based; conditions: in vivo, 504 h
B16-F10 [45] = experiment: Induction of apoptosis in mouse B16F10 cells assessed as necrotic cells at IC50 after 72 hrs by annexin V-FITC/propidium iodide staining-based flow cytometric method relative to control; format: functional
B16-F10 [46] = experiment: Antitumor activity against mouse B16F10 cells allografted in Balb/c mouse assessed as tumor growth inhibition at 25 mg/kg, iv administered thrice weekly for 21 days starting on day 10 post tumor implantation relative to control; format: functional; conditions: read-out: TGI
B16-F10 [47] = experiment: Induction of apoptosis in mouse B16F10 cells assessed as nuclear fragmentation at IC50 after 72 hrs by DAPI staining-based fluorescence microscopic method; format: functional, cell-based
B16-F10 [48] = experiment: Induction of apoptosis in mouse B16F10 cells at IC50 after 72 hrs by annexin V-FITC/propidium iodide staining-based flow cytometric method relative to control; format: functional

## N=C(N)NCCC[C@H](NC(=O)[C@@H](N)Cc1cnc[nH]1)C(=O)NCC(=O)N[C@@H](CC(=O)Nc1ccn([C@@H]2O[C@H](CO)[C@@H](O)C2(F)F)c(=O)n1)C(N)=O (H-HRGD(X1)-NH2)
[1]
  Drug uptake: 0.17 % ID/g
[2]
  hemolysis at 1 h: 5 to 6%
[3]
  Kp at 2 h: 0.72
[4]
  Kp at 4 h: 0.94
[5]
  Drug uptake: 4.99%
[6]
  Drug uptake: Active
[7]
  Ratio: 4.89
[8]
  Ratio: 4.66
[9]
  Drug uptake: 0.32 % ID/g
[10]
  Drug uptake: 0.36 % ID/g
[11]
  Drug uptake: Active
[12]
  Drug uptake: Active
[13]
  Drug uptake: 14.39 % ID/g
[14]
  remaining at 24 h: ≥ 92%
[15]
  Drug uptake: 30.45%
[16]
  Drug uptake: 0.26 % ID/g
[17]
  Drug uptake: 0.07 % ID/g
[18]
  Drug uptake: 0.2 % ID/g
[19]
  Drug uptake: 56.11 %ID/ml
[20]
  Drug uptake: 9.06 % ID/g
[21]
  Drug uptake: 0.17 % ID/g
[22]
  Drug uptake: 0.83 % ID/g
[23]
  Drug uptake: 0.44 % ID/g
[24]
  remaining at 24 h: ≥ 92%
[25]
  Drug uptake: 65%
[26]
  Drug uptake: 7.9 % ID/g
[27]
  Drug uptake: 0.05 % ID/g
[28]
  Drug uptake: 53.11 %ID/ml
[29]
  hemolysis at 1 h, 100 µM: 7 to 9%
B16-F10 [30]
  Ratio: 1.8
[31]
  Drug uptake: 0.88 %ID/ml
[32]
  Drug uptake: 3.24 % ID/g
[33]
  Drug uptake: 0.82 % ID/g
[34]
  degraded at 24 h: 5%
[35]
  logP at 1 min: -1.77
B16-F10 [36]
  pIC50: 6.68
[37]
  Drug uptake: 0.26 % ID/g
[38]
  Drug uptake: Active
[39]
  Drug uptake: 1.13 %ID/ml
[40]
  Drug uptake: 4.44 % ID/g
[41]
  Drug uptake: 16.89 % ID/g
[42]
  Drug uptake: 2.9%
[43]
  Drug uptake: Not Active
[44]
  Drug uptake: Active

## Nc1ccn([C@@H]2O[C@H](CO)[C@@H](O)C2(F)F)c(=O)n1 [GEMCITABINE]
Mus musculus
  Activity: 28.65 g
B16-F10 [45]
  Activity: 12 - 14%
B16-F10 [46]
  inhibition in vivo at 25 mg/kg: 37%
B16-F10 [47]
  Activity: Active
B16-F10 [36]
  pIC50: 6.59
B16-F10 [48]
  Activity: 26%
